{"source": "patent EP0365134A1", "about": "“Synergistic compositions of renal dopaminergic agent and angiotensin converting enzyme inhibitors” (priority 1988, dated 1990)", "test": "Renal clearance study in unanesthetized dogs: effective renal plasma flow (PAH clearance) and glomerular filtration rate (creatinine clearance)", "type": "in vivo", "conditions": "alone", "description": "A modification of the renal function protocol, described in the prior art, was used for renal clearance studies in adult, trained, unanesthetized, fasted, female mongrel dogs, lightly restrained on their backs on a cradle-like board constructed specifically for this purpose. […] All dogs were given an oral water load of 500 ml of tap water thirty minutes prior to initiation of the study. […] Suitable plasma levels of creatinine and p-aminohippuric acid were obtained by a thirty minute infusion of this solution prior to starting of the initial urine collection (U₁) In addition, 1.5 ml/kg of a 1% creatinine solution in phosphate buffer was injected intravenously fifteen minutes prior to collection of U₁. Replicate urine collections were obtained at ten minute intervals throughout the experiment. The bladder was emptied by an indwelling catheter and complete urine collections were assured by rinsing the bladder with 10 mls of warm water at the end of each collection interval. This procedure was followed by an air washout. Venous blood samples were drawn from an indwelling catheter at the mid-point of each clearance period. Urine volumes were recorded at the time of collection. Plasma and urine samples were stored frozen, after collection, until analyzed. Analyses for creatinine and p-aminohippuric acid were made, by colorimetry, using standard AutoAnalyzer methodologies. These analyses were made simultaneously on each sample. Peak intensities were identified electronically, recorded on \"on-line\" teletype, stored and subsequently analyzed mathematically by time-shared computer against appropriate standards. Data were computed from linear least square regression lines, and quality control standards were analyzed simultaneously to evaluate system reproducibility and reliability. The bladder was emptied upon beginning the study and three control clearances (U₁-U₃, Phase 1) were obtained. […] Post-drug clearance C₄-C₆, C₇-C₉, C₁₀-C₁₂ (Phases II, III and IV) were collected immediately, with no delay between C₃ and C₄. […] Four dogs were used for each treatment. All compounds were weighed as free base content.", "data": [{"smiles": "CS(=O)(=O)O.Oc1ccc(C2CNCCc3c2cc(O)c(O)c3Cl)cc1", "note": "(centres unmarked) [Fenoldopam, 6-Chloro-7,8-dihydroxy-1-(4-hydroxyphenyl)-2,3,4,5-tetrahydro-1H-3-benzazepine methyl sulfonate]", "values": [{"measurement": "ERPF ( % from control)", "setting": "Fenoldopam 2.5 mg/kg orally", "value": "34 ± 5", "unit": "% from control"}, {"measurement": "GFR ( % from control)", "setting": "Fenoldopam 2.5 mg/kg orally", "value": "-2 ± 2", "unit": "% from control"}, {"measurement": "ERPF ( % from control)", "setting": "Fenoldopam 5.0 mg/kg orally", "value": "47 ± 16", "unit": "% from control"}, {"measurement": "GFR ( % from control)", "setting": "Fenoldopam 5.0 mg/kg orally", "value": "6 ± 5", "unit": "% from control"}, {"measurement": "ERPF ( % from control)", "setting": "Fenoldopam 10 mg/kg orally", "value": "30 ± 2", "unit": "% from control"}, {"measurement": "GFR ( % from control)", "setting": "Fenoldopam 10 mg/kg orally", "value": "-1 ± 2", "unit": "% from control"}, {"measurement": "ERPF ( % from control)", "setting": "Fenoldopam 20 mg/kg orally", "value": "44 ± 15", "unit": "% from control"}, {"measurement": "GFR ( % from control)", "setting": "Fenoldopam 20 mg/kg orally", "value": "1 ± 3", "unit": "% from control"}]}]}
